Experimental findings from PubChem BioAssay AID1508612 are described below.

Bounds are passed on as bounds.

The series is described as follows: passive permeability, PAMPA, ADME assay (AID 1508612). The following applies: pH 7.4, 30.0 min, 50.0 µM.
As a reminder, the Papp is the rate of passage across a membrane or cell layer, normalised by area and donor concentration. A lower Papp goes with poor permeation. The molecule `O=C(c1nc(-c2cccnc2)c2ccccn12)N1CCN(c2ncccn2)CC1` had a Papp of more than 1000 ×10⁻⁶ cm/s.
Then `Cc1cc(C)cc(NS(=O)(=O)c2ccc3[nH]cc(C(=O)NCc4ccco4)c(=O)c3c2)c1`, with 9.3 ×10⁻⁶ cm/s; and `Fc1cccc(Nc2nc(-c3ccncc3)nc3ccccc23)c1F`, with 799 ×10⁻⁶ cm/s.
For the molecule `O=C(NCc1ccccc1)c1cn2cc(-c3ccccc3)sc2n1`, the Papp is more than 1000 ×10⁻⁶ cm/s.
With `Cc1nc2nc(NC(=O)c3ccc(C(C)(C)C)cc3)[nH]n2c(=O)c1Cl` the figure was 8.91 ×10⁻⁶ cm/s; with `COC(=O)c1ccc2c(c1)nc1n2[C@@H](CNC(C)=O)COC1`, 4.45 ×10⁻⁶ cm/s.
`Cc1nc2sccn2c(=O)c1S(=O)(=O)Nc1ccc(N2CCN(C)CC2)cc1` came in with a Papp of 289 ×10⁻⁶ cm/s. Against the preceding molecule, the Papp is about 65-fold higher.
With `CC(C)n1cc(-c2ccc(Oc3ccccc3)cc2)c2c(N)ncnc21` the figure was more than 1000 ×10⁻⁶ cm/s; with `O=C(Nc1ncccc1O)c1ccc(S(=O)(=O)Nc2ccccc2)cc1`, 344 ×10⁻⁶ cm/s; with `COc1cccc(C(=O)Nc2nc(-c3nnn(-c4ccccc4C(F)(F)F)c3C)ns2)c1`, 383 ×10⁻⁶ cm/s.
`NC(=O)C1CCN(c2ncc(-c3ccc4c(c3)OC(F)(F)O4)s2)CC1` came in with a Papp of 438 ×10⁻⁶ cm/s.
With `CC(=O)N1CCN(c2ccc(OCc3nn(C)c(C)c3-c3cccc4c(CCCOc5cccc6ccccc56)c(C(=O)O)n(Cc5cccnc5)c34)cc2)CC1` the figure was 253 ×10⁻⁶ cm/s; with `CC1=Nc2cc(C(=O)NC3CCCC3)ccc2Sc2ccc(C)cc21`, more than 1000 ×10⁻⁶ cm/s; with `O=S(=O)(Nc1nccs1)c1ccc(NCc2cccc(O)c2)cc1`, 1.15 ×10⁻⁶ cm/s.
With `Cc1cccc(-n2cnc3cc(C(=O)N4CCCCC4)ccc32)c1` the figure was 912 ×10⁻⁶ cm/s.
In turn, `C[C@H]1[C@@H](CCC(=O)Nc2ccc(F)cc2)O[C@@H]2O[C@]3(C)CC[C@@H]4[C@H](C)CC[C@@H]1[C@@]24OO3` displayed a Papp of more than 1000 ×10⁻⁶ cm/s.
Then `CCOc1ccccc1C(=O)NC1CCN(c2cc(C)cc(C)c2)C1=O` (configuration not stated), with more than 1000 ×10⁻⁶ cm/s; and `CCCOC(c1cc2nccc(C(=O)O)c2[nH]1)c1ccccc1Cl` (configuration not stated), with 12.9 ×10⁻⁶ cm/s.
Take `COc1cc(-c2ccnc3c2c(C)nn3-c2cccc(C(F)(F)F)c2)ccc1O`: the Papp stood at 93.1 ×10⁻⁶ cm/s.
With `CC(=O)c1c(C)[nH]c(C(=O)Nc2cccc([S+](=O)([O-])Nc3ccc(C#N)cc3)c2)c1C` the figure was 178 ×10⁻⁶ cm/s; with `O=C(Cc1ccc(Cl)c(Cl)c1)Nc1ccc(S(=O)(=O)Nc2ccon2)cc1`, 9.17 ×10⁻⁶ cm/s; with `CCN1CCN(c2ccc3cc(S(=O)(=O)N4CCOCC4)ccc3n2)CC1`, more than 1000 ×10⁻⁶ cm/s.
For `Cc1ccccc1C(=O)Nc1sc2c(c1C(=O)NCc1ccco1)CCC(C(C)(C)C)C2` (configuration not stated), the Papp came to 167 ×10⁻⁶ cm/s.
Then `Cc1ccc(-c2cc(C(=O)Nc3ccc(-c4nn[nH]n4)cc3)c3ccccc3n2)cc1C`, with 4.23 ×10⁻⁶ cm/s; and `COc1ccc2nc(C)cc(Nc3ccc(Cl)c(Cl)c3)c2c1`, with more than 1000 ×10⁻⁶ cm/s; and `COc1cc(C2c3c(oc4cc(C)c(C)cc4c3=O)C(=O)N2CCCN2CCOCC2)ccc1O` (configuration not stated), with 118 ×10⁻⁶ cm/s.
With `COc1ccc(NC(=O)c2c(C)cccc2C)cc1[S+](=O)([O-])N1CCCCCC1` the figure was 738 ×10⁻⁶ cm/s; with `O=c1c2ccccc2nc(/C=C/c2cccnc2)n1Cc1ccccc1`, more than 1000 ×10⁻⁶ cm/s; with `O=C(c1ccccc1)N1CCC(c2nn(-c3ccc(F)cc3)c(=O)[nH]2)CC1`, 679 ×10⁻⁶ cm/s.
Then `COc1cc(O)c([C@H](CC(=O)N2CC(C)CC(C)C2)c2ccc3c(c2)OCO3)c(OC)c1` (some centres not stated), with more than 1000 ×10⁻⁶ cm/s.
For the molecule `Cc1cccc2nc(-c3cccnc3)c(Nc3ccc(C(C)C)cc3)n12`, the Papp is more than 1000 ×10⁻⁶ cm/s.
Consider `Oc1ccc2[nH]cc(CCCCN3CC=C(c4ccccc4)CC3)c2c1`, for which the Papp was more than 1000 ×10⁻⁶ cm/s.
With `CCCCC1CCC(C(=O)Nc2ccc(S(=O)(=O)Nc3nccs3)cc2)CC1` (configuration not stated) the figure was 587 ×10⁻⁶ cm/s; with `CC(=O)N1CCC(NC(=O)c2nc(-c3ccccc3)cc3[nH]ccc23)CC1`, 288 ×10⁻⁶ cm/s; with `O=C(Nc1ccc(F)c(C(F)(F)F)c1)Nc1nnc(-c2ccncc2)s1`, 38.5 ×10⁻⁶ cm/s.
As to `Cc1ccc(CN2CCOC[C@H]2c2ncc(-c3cccc(F)c3)[nH]2)cc1`, the Papp was more than 1000 ×10⁻⁶ cm/s.
For `NC(=O)C1CCN(c2nc(-c3ccc(OC(F)(F)F)cc3)cs2)CC1`, the Papp turned out to be 104 ×10⁻⁶ cm/s.
In turn, `CC1=Nc2cc(C(=O)NCCc3ccccc3)ccc2Sc2c(C)ccc(C)c21` had a Papp of 359 ×10⁻⁶ cm/s.
`COc1ccc(-c2nc(CS(=O)CC(=O)N3CCC4(CC3)OCCO4)c(C)o2)cc1` (configuration not stated): the Papp came to 91.7 ×10⁻⁶ cm/s.
As for `Cc1cc(C)nc(NC(=S)N2CCN(c3cccc(C(F)(F)F)c3)CC2)c1`, the Papp came to 593 ×10⁻⁶ cm/s.
Regarding `COc1ccc(NS(=O)(=O)c2ccc(C)c(C(=O)Nc3ccc4oc(C)nc4c3)c2)cc1`, the Papp turned out to be 737 ×10⁻⁶ cm/s.
With `NC(=O)C1CCN(c2nccc(-c3ccc4c(c3)OCCCO4)n2)CC1` the figure was 653 ×10⁻⁶ cm/s; with `COC(=O)[C@@]12OC[C@]34[C@H]([C@@H](O)[C@@H]1O)[C@@]1(C)CC(=O)C(O)=C(C)[C@@H]1C[C@H]3OC(=O)[C@H](OC(=O)/C=C(\C)C(C)C)[C@@H]24`, 120 ×10⁻⁶ cm/s.
In turn, `CNC(=O)c1ccc(C)c(-n2c(C)cc(OCc3ccc(F)cc3F)c(Br)c2=O)c1` gave a Papp of 695 ×10⁻⁶ cm/s.
With `O=C(O)c1ccnc2cc(C(OCCN3CCCCC3)c3ccccc3Cl)[nH]c12` (configuration not stated) the figure was less than 1 ×10⁻⁶ cm/s.
As to `CC(C)(C)OC(=O)N1CCN(c2ccc(NCc3ccc(-c4ccc(C#N)cc4)o3)cc2)CC1`, the Papp amounted to 338 ×10⁻⁶ cm/s.
Then `Fc1cc(-c2nc(Nc3ccc(F)c(F)c3)c3ccccc3n2)ccn1`, with 116 ×10⁻⁶ cm/s; and `CC[C@H](C)[C@@H]([C@@H](CC(=O)N1CCC[C@H]1[C@H](OC)[C@@H](C)C(=O)N[C@@H](Cc1ccccc1)c1nccs1)OC)N(C)C(=O)[C@@H](NC(=O)[C@H](C(C)C)N(C)C)C(C)C`, with 341 ×10⁻⁶ cm/s; and `Cc1ccccc1C(=O)N1CCc2cc(-n3cc(NC(=O)Cc4ccccc4)cn3)ccc21`, with 82.6 ×10⁻⁶ cm/s.
`Cc1cc(C)c(CNC(=O)c2nc(-c3cccc(CO)c3)cc3c2ccn3C)c(=O)[nH]1` returned a Papp of more than 1000 ×10⁻⁶ cm/s.
With `CCOC(=O)c1[nH]c(C)c(CCC(=O)N2CCN(c3cccc(C)c3C)CC2)c1C` the figure was more than 1000 ×10⁻⁶ cm/s; with `CCCCOc1ccc(CNC(=O)c2cc3n(n2)CCCN(Cc2ccc(C)cc2)C3=O)cc1`, less than 1 ×10⁻⁶ cm/s; with `COc1cccc(NC(=S)N2CCN(c3cccc(C(F)(F)F)c3)CC2)n1`, 735 ×10⁻⁶ cm/s.
For the molecule `O=C1Nc2ccccc2/C1=C/c1cc(Cl)c(O)c(Cl)c1`, the Papp turned out to be 49 ×10⁻⁶ cm/s.
The molecule `Cc1cc(/C=C2/C(=O)Nc3ccccc32)cc(C)c1O` showed a Papp of 976 ×10⁻⁶ cm/s. This Papp is about 20-fold higher than that of the molecule before.
For `O=C(NCCc1nc2ccccc2n1CCO)C1CCCCC1`, the Papp turned out to be 85.4 ×10⁻⁶ cm/s.
Then `O=C1Nc2ccc(I)cc2C1=Cc1cc(Br)c(O)c(Br)c1`, with 150 ×10⁻⁶ cm/s.
Then `CCN(CC)S(=O)(=O)c1cccc(C(=O)Nc2ccc(C#N)cc2)c1`, with more than 1000 ×10⁻⁶ cm/s; and `COc1cccc(CNCc2cccn2-c2nnc(N3CCN(c4ccccc4)CC3)s2)c1`, with more than 1000 ×10⁻⁶ cm/s; and `Cc1c(O)ccc2c1OC(C)(C)CC2`, with 540 ×10⁻⁶ cm/s.
Then `Cc1ccc(S(=O)(=O)Nc2cccc(C(=O)Nc3nc(-c4ccccc4)cs3)c2Cl)cc1`, with less than 1 ×10⁻⁶ cm/s.
Consider `COc1cccc(CNc2ccc(S(=O)(=O)Nc3cccc(N4CCNCC4)c3)cc2)c1O`, for which the Papp was 16 ×10⁻⁶ cm/s.
Consider `COc1ccc(NC(=O)c2c(C)cccc2C)cc1S(=O)(=O)Nc1ccc(Br)cc1`, for which the Papp is 581 ×10⁻⁶ cm/s.
With `COc1ccc(NC(=O)c2[nH]c(C)c(C(C)=O)c2C)cc1S(=O)(=O)N1CCCCCC1` the figure was 989 ×10⁻⁶ cm/s; with `Cc1ccc(-c2csc(N3CCC(C(N)=O)CC3)n2)cc1`, 711 ×10⁻⁶ cm/s; with `COc1ccc(C)cc1Nc1c2c(nc3ccccc13)CCC2`, more than 1000 ×10⁻⁶ cm/s.
With `OC(CCN1CCCCC1)c1ccc(-c2ccccc2)cc1` (configuration not stated), the Papp is more than 1000 ×10⁻⁶ cm/s.
For the molecule `NC(=O)C1CCN(c2nnc(-c3ccc(Br)cc3)s2)CC1`, the Papp was 525 ×10⁻⁶ cm/s.
Molecule `Cc1ccc2oc3c(c(=O)c2c1)C(c1cccc(O)c1)N(CCCN1CCOCC1)C3=O` (configuration not stated) gave a Papp of 103 ×10⁻⁶ cm/s.
Then `COc1ccc(-c2nc3ncccc3[nH]2)cc1`, with 139 ×10⁻⁶ cm/s.
With `CC1=C(C(=O)Nc2nncs2)C(c2[nH]ncc2Cl)N=C(Nc2nc3ccccc3o2)N1` (configuration not stated) the figure was 37 ×10⁻⁶ cm/s; with `COc1ccccc1CNc1ccc(S(=O)(=O)Nc2nccs2)cc1`, 512 ×10⁻⁶ cm/s; with `CCCCN(C)C(=O)c1c(C)sc2ccn(CCC)c(=O)c12`, 124 ×10⁻⁶ cm/s.
Then `Cc1ccc(S(=O)(=O)Nc2ccc(Br)cc2C(=O)Nc2nc(-c3ccccc3)cs2)cc1`, with 2.4 ×10⁻⁶ cm/s.
On to `Nc1nc2c(s1)C(c1ccc(F)c(F)c1)CC(=O)N2` (configuration not stated), for which the apparent permeability coefficient (Papp) is 265 ×10⁻⁶ cm/s.
The molecule `CCN1CCN(C(=O)c2cc(-c3ccc(F)cc3)c3nncn3n2)CC1` yielded an apparent permeability coefficient (Papp) of 159 ×10⁻⁶ cm/s. Compared with the last molecule, the Papp is about 1.7-fold lower.
Then `CC(C)COc1ccc(-c2csc(N3CCC(C(N)=O)CC3)n2)cc1`, with 48.4 ×10⁻⁶ cm/s; and `Fc1ccc(Nc2nc(Nc3ccncc3)nc3ccccc23)cc1F`, with 40.4 ×10⁻⁶ cm/s.
`COc1cc(C(=O)NC2CCCc3c2[nH]c2c(Cl)cccc32)cc(OC)c1OC` (configuration not stated) showed a Papp of 593 ×10⁻⁶ cm/s.
With `Cc1cccc(S(=O)(=O)Nc2cnccc2C(=O)Nc2nc(-c3ccccc3)cs2)c1` the figure was 860 ×10⁻⁶ cm/s; with `COc1ccccc1-n1cnc2cc(C(=O)N3CCCCC3)ccc21`, 385 ×10⁻⁶ cm/s; with `Fc1cc(Nc2nc(-c3ccncc3)nc3ccccc23)ccc1-c1cccc(C(F)(F)F)c1`, 16.8 ×10⁻⁶ cm/s.
Then `COc1ccc(NC(=O)c2[nH]c(C)c(C(C)=O)c2C)cc1S(=O)(=O)N1CCCCC1`, with 757 ×10⁻⁶ cm/s; and `CC1CCN(C(=O)c2ccc(-c3ccc(N4CCSCC4)nc3)cc2)CC1`, with more than 1000 ×10⁻⁶ cm/s; and `CCN(CC)CCOc1ccc2c(=O)c3ccc(Cl)cc3n(CCN(CC)CC)c2c1`, with more than 1000 ×10⁻⁶ cm/s.
Then `Cc1cc(NS(=O)(=O)c2ccc(N(C)C(=O)Cc3ccc(Cl)c(Cl)c3)cc2)no1`, with 48.1 ×10⁻⁶ cm/s; and `Cn1ccc2c(C(=O)NCCC(N)=O)nc(-c3cccc(CO)c3)cc21`, with 29.9 ×10⁻⁶ cm/s; and `CN(C)c1ccccc1-c1csc(N2CCC(C(N)=O)CC2)n1`, with 331 ×10⁻⁶ cm/s.
The molecule `Cc1nc(Sc2nnnn2C)c2c(-c3ccccc3)csc2n1` registered a Papp of 826 ×10⁻⁶ cm/s.
`O=C(NC1CC1)C1CCCN1C(=O)c1cccc(-c2ccccn2)c1` (configuration not stated) gave a Papp of 11 ×10⁻⁶ cm/s.
The molecule `Cc1ccc(CSCc2ccc(C(=O)NC3CC3)o2)cc1` yielded a Papp of 833 ×10⁻⁶ cm/s.
With `Cc1cnc(-c2ccccc2C(C)C)nc1NCC1CCN(C2COC2)CC1` the figure was more than 1000 ×10⁻⁶ cm/s.
